Reference: US4904657A, “4H-quinolizin-4-one compounds exhibiting therapeutic activities” (Kissei Pharmaceutical Co., Ltd., priority 1987, dated 1990)

How the values were obtained:
IgE = IgE produced in in vitro culture of spleen cells from DNP-As immunized mice (ELISA); assay type: cell-based, BALB/c mice; details: Mus musculus, 96 h, spleen cell culture, 37° C., 4 days; for inhibition at 5 µg/mL: 5 μg/ml; for inhibition at 10 µg/mL: 10 μg/ml; for inhibition at 40 µg/mL: 40 μg/ml; for inhibition at 20 µg/mL: 20 μg/ml; for inhibition at 2.5 µg/mL: 2.5 μg/ml; for inhibition at 1 µg/mL: 1 μg/ml
Experimental: (§1) Determination of Igs Produced in In Vitro Culture
(§2) BALB/c mice were immunized intraperitoneally with 5 μg of DNP-As adsorbed on 4 mg aluminum hydroxide gel. Four weeks after the immunization, the spleens were excised from the mice and 5×10^7 spleen cells were transferred intravenously into the recipient mice which had been exposed to 600 rad of X-ray irradiation. Immediately after cell transfer, the recipients were then immunized intraperitoneally with 5 μg of DNP-As adsorbed on 4 mg aluminum hydroxide gel to induce adoptive secondary immune response. Further 4 weeks after the immunization of recipients, the spleens were excised from then and the spleen cell suspensions containing 5×10^6 cells/ml were cultured with or without a compound to be tested in 96-well micro-titer plates at 37° C. for 4 days. IgE and IgG secreted into the culture supernatant was each determined correspondingly by ELISA and the inhibitory effect was calculated according to the following equation. [formula]

IgG = IgG produced in in vitro culture of spleen cells from DNP-As immunized mice (ELISA); assay type: cell-based, BALB/c mice; details: Mus musculus, 96 h, spleen cell culture, 37° C., 4 days; for inhibition at 5 µg/mL: 5 μg/ml; for inhibition at 10 µg/mL: 10 μg/ml; for inhibition at 40 µg/mL: 40 μg/ml; for inhibition at 20 µg/mL: 20 μg/ml; for inhibition at 2.5 µg/mL: 2.5 μg/ml; for inhibition at 1 µg/mL: 1 μg/ml
Experimental: as §1, §2

CCOC(=O)c1c(-c2ccccc2)c(C#N)c(=O)n2ccccc12 [Compound S-1, 3-Cyano-1-ethoxycarbonyl-2-phenyl-4H-quinolizin-4-one]
inhibition at 5 µg/mL (IgE): 47%
inhibition at 5 µg/mL (IgG): 1%

CCOC(=O)c1c(-c2ccc(Br)cc2)c(C#N)c(=O)n2ccccc12 [Compound S-3, 2-(4-Bromophenyl)-3-cyano-ethoxycarbonyl-4H-quinolizin-4-one]
inhibition at 49 µg/mL (IgE; 49 μg/ml): 34%
inhibition at 49 µg/mL (IgG; 49 μg/ml): 15%

CCOC(=O)c1c(-c2ccc(OC)cc2)c(C#N)c(=O)n2ccccc12 [Compound S-6, 3-Cyano-1-ethoxycarbonyl-2-(4-methoxyphenyl)-4-quinolizin-4-one]
inhibition at 10 µg/mL (IgE): 65%
inhibition at 10 µg/mL (IgG): 37%

CCOC(=O)c1c(-c2ccc3c(c2)OCO3)c(C#N)c(=O)n2ccccc12 [Compound S-8, 3-Cyano-1-ethoxycarbonyl-2-(3,4-methylenedioxyphenyl)-4H-quinolizin-4-one]
inhibition at 40 µg/mL (IgE): 51%
inhibition at 40 µg/mL (IgG): 5%

CCOC(=O)c1c(-c2ccc(Cl)cc2Cl)c(C#N)c(=O)n2ccccc12 [Compound S-9, 3-Cyano-2-(2,4-dichlorophenyl)-1-ethoxycarbonyl-4H-quinolizin-4-one]
inhibition at 5 µg/mL (IgE): 64%
inhibition at 5 µg/mL (IgG): 32%

CCCOC(=O)c1c(-c2ccccc2)c(C#N)c(=O)n2ccccc12 [Compound S-10, 3-Cyano-2-phenyl-1-propoxycarbonyl-4H-quinolizin-4-one]
inhibition at 10 µg/mL (IgE): 57%
inhibition at 10 µg/mL (IgG): 22%

COC(=O)c1c(-c2ccccc2)c(C#N)c(=O)n2ccccc12 [Compound S-11, 3-Cyano-1-methoxycarbonyl-2-phenyl-4H-quinolizin-4-one]
inhibition at 40 µg/mL (IgE): 46%
inhibition at 40 µg/mL (IgG): 19%

CCOC(=O)c1c(-c2ccc(F)cc2)c(C#N)c(=O)n2ccccc12 [Compound S-12, 3-Cyano-1-ethoxycarbonyl-2-(4-fluorophenyl)-4H-quinolizin-4-one]
inhibition at 20 µg/mL (IgE): 50%
inhibition at 20 µg/mL (IgG): 8%

CCOC(=O)c1c(-c2ccc(C)c(F)c2)c(C#N)c(=O)n2ccccc12 [Compound S-13, 3-Cyano-1-ethoxycarbonyl-2-(3-fluoro-4-methylphenyl)-4H-quinolizin-4-one]
inhibition at 40 µg/mL (IgE): 64%
inhibition at 40 µg/mL (IgG): 26%

CCOC(=O)c1c(-c2cc(OC)c(OC)c(OC)c2)c(C#N)c(=O)n2ccccc12 [Compound S-19, 3-Cyano-1-ethoxycarbonyl-2-(3,4,5-trimethoxyphenyl)-4H-quinolizin-4-one]
inhibition at 20 µg/mL (IgE): 48%
inhibition at 20 µg/mL (IgG): 8%

CCOC(=O)c1c(-c2ccc([N+](=O)[O-])cc2)c(C#N)c(=O)n2ccccc12 [Compound S-20, 3-Cyano-1-ethoxycarbonyl-2-(4-nitrophenyl)-4H-quinolizin-4-one]
inhibition at 10 µg/mL (IgE): 49%
inhibition at 10 µg/mL (IgG): 9%

CCOC(=O)c1c(-c2ccc(SC)cc2)c(C#N)c(=O)n2ccccc12 [Compound S-25, 3-Cyano-1-ethoxycarbonyl-2-(4-methylthiophenyl)-4H-quinolizin-4-one]
inhibition at 20 µg/mL (IgE): 61%
inhibition at 20 µg/mL (IgG): -4%

CCOC(=O)c1c(-c2cccc(OC)c2OC)c(C#N)c(=O)n2ccccc12 [Compound S-28, 3-Cyano-2-(2,3-dimethoxyphenyl)-1-ethoxycarbonyl-4H-quinolizin-4-one]
inhibition at 2.5 µg/mL (IgE): 64%
inhibition at 2.5 µg/mL (IgG): 14%

CCOC(=O)c1c(-c2cc(OC)cc(OC)c2)c(C#N)c(=O)n2ccccc12 [Compound S-29, 3-Cyano-2-(3,5-dimethoxyphenyl)-1-ethoxycarbonyl-4H-quinolizin-4-one]
inhibition at 40 µg/mL (IgE): 67%
inhibition at 40 µg/mL (IgG): 17%

CCOC(=O)c1c(-c2ccc(O)cc2)c(C#N)c(=O)n2ccccc12 [Compound S-30, 3-Cyano-1-ethoxycarbonyl-2-(4-hydroxyphenyl)-4H-quinolizin-4-one]
inhibition at 40 µg/mL (IgE): 43%
inhibition at 40 µg/mL (IgG): -20%

CCOC(=O)c1c(-c2ccc(O)c(O)c2)c(C#N)c(=O)n2ccccc12 [Compound S-31, 3-Cyano-2-(3,4-dihydroxyphenyl)-1-ethoxycarbonyl-4H-quinolizin-4-one]
inhibition at 20 µg/mL (IgE): 54%
inhibition at 20 µg/mL (IgG): -7%

CCOC(=O)c1c(-c2ccc(O)c(OC)c2)c(C#N)c(=O)n2ccccc12 [Compound S-32, 3-Cyano-1-ethoxycarbonyl-2-(4-hydroxy-3-methoxyphenyl)-4H-quinolizin-4-one]
inhibition at 20 µg/mL (IgE): 53%
inhibition at 20 µg/mL (IgG): -9%

CCOC(=O)c1c(-c2ccc(OC)c(O)c2)c(C#N)c(=O)n2ccccc12 [Compound S-33, 3-Cyano-1-ethoxycarbonyl-2-(3-hydroxy-4-methoxyphenyl)-4H-quinolizin-4-one]
inhibition at 40 µg/mL (IgE): 58%
inhibition at 40 µg/mL (IgG): 5%

CCOC(=O)c1c(N2CCCCC2)c(C#N)c(=O)n2ccccc12 [Compound S-35, 3-Cyano-1-ethoxycarbonyl-2-piperidino-4H-quinolizin-4-one]
inhibition at 5 µg/mL (IgE): 30%
inhibition at 5 µg/mL (IgG): 17%

N#Cc1c(N2CCCCC2)c(C(=O)OCCCc2ccccc2)c2ccccn2c1=O [Compound S-36, 3-Cyano-1-(3-phenylpropoxycarbonyl)-2-piperidino-4H-quinolizin-4-one]
inhibition at 5 µg/mL (IgE): 39%
inhibition at 5 µg/mL (IgG): -4%

N#Cc1c(N2CCCC2)c(C(=O)OCCCc2ccccc2)c2ccccn2c1=O [Compound S-38, 3-Cyano-1-(3-phenylpropoxycarbonyl)-2-(1-pyrrolidinyl)-4H-quinolizin-4-one]
inhibition at 1 µg/mL (IgE): 68%
inhibition at 1 µg/mL (IgG): 1%

CCOC(=O)c1c(N2CCN(CCO)CC2)c(C#N)c(=O)n2ccccc12 [Compound S-39, 3-Cyano-1-ethoxycarbonyl-2-[4-(2-hydroxyethyl)-piperazin-1-yl]-4H-quinolizin-4-one]
inhibition at 40 µg/mL (IgE): 63%
inhibition at 40 µg/mL (IgG): 17%

CCOC(=O)c1c(N2CCN(C=O)CC2)c(C#N)c(=O)n2ccccc12 [Compound S-40, 3-Cyano-1-ethoxycarbonyl-2-(4-formylpiperazin-1-yl)-4H-quinolizin-4-one]
inhibition at 40 µg/mL (IgE): 34%
inhibition at 40 µg/mL (IgG): 9%

N#Cc1c(N2CCN(C=O)CC2)c(C(=O)OCCCc2ccccc2)c2ccccn2c1=O [Compound S-41, 3-Cyano-2-(4-formylpiperazin-1-yl)-1-(3-phenylpropoxycarbonyl)-4H-quinolizin-4-one]
inhibition at 2.5 µg/mL (IgE): 75%
inhibition at 2.5 µg/mL (IgG): 9%

CCOC(=O)c1c(N2CCN(C)CC2)c(C#N)c(=O)n2ccccc12 [Compound S-42, 3-Cyano-1-ethoxycarbonyl-2-(4-methylpiperazin-1-yl)-4H-quinolizin-4-one]
inhibition at 40 µg/mL (IgE): 63%
inhibition at 40 µg/mL (IgG): 19%

CN1CCN(c2c(C#N)c(=O)n3ccccc3c2C(=O)OCCCc2ccccc2)CC1 [Compound S-43, 3-Cyano-2-(4-methylpiperazin-1-yl)-1-(3-phenylpropoxycarbonyl)-4H-quinolizin-4-one]
inhibition at 2.5 µg/mL (IgE): 65%
inhibition at 2.5 µg/mL (IgG): 1%

N#Cc1c(N2CCC(Cc3ccccc3)CC2)c(C(=O)OCCCc2ccccc2)c2ccccn2c1=O [Compound S-45, 2-(4-Benzylpiperidino)-3-cyano-1-(3-phenylpropoxycarbonyl)-4H-quinolizin-4-one]
inhibition at 1 µg/mL (IgE): 55%
inhibition at 1 µg/mL (IgG): 16%

N#Cc1c(N2CCOCC2)c(C(=O)OCCCc2ccccc2)c2ccccn2c1=O [Compound S-49, 3-Cyano-2-morpholino-1-(3-phenylpropoxycarbonyl)-4H-quinolizin-4-one]
inhibition at 2.5 µg/mL (IgE): 61%
inhibition at 2.5 µg/mL (IgG): 21%

N#Cc1c(N2CCN(CCO)CC2)c(C(=O)OCCCc2ccccc2)c2ccccn2c1=O [Compound S-54, 3-Cyano-2-[4-(2-hydroxyethyl)piperazin-1-yl]-1-(3-phenylpropoxycarbonyl)-4H-quinolizin-4-one]
inhibition at 5 µg/mL (IgE): 59%
inhibition at 5 µg/mL (IgG): 4%

CCOC(=O)c1c(N2CCN(CC(=O)N3CCOCC3)CC2)c(C#N)c(=O)n2ccccc12 [Compound S-55, 3-Cyano-1-ethoxycarbonyl-2-(4-morpholinocarbonylmethylpiperazin-1-yl)-4H-quinolizin-4-one]
inhibition at 40 µg/mL (IgE): 36%
inhibition at 40 µg/mL (IgG): -4%

N#Cc1c(N2CCN(CC(=O)N3CCOCC3)CC2)c(C(=O)OCCCc2ccccc2)c2ccccn2c1=O [Compound S-56, 3-Cyano-2-(4-morpholinocarbonylmethylpiperazin-1-yl)-1-(3-phenylpropoxycarbonyl)-4H-quinolizin-4-one]
inhibition at 2.5 µg/mL (IgE): 37%
inhibition at 2.5 µg/mL (IgG): 1%
